From ChEMBL document CHEMBL1201862, “PubChem BioAssay data set” (2004)
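Interpolation was linear, between the two tested concentrations surrounding the appropriate level; five concentrations were tested over 48 hours in 96-well plates. At the GI50, growth is halved.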 Activity calls are given as the source filed them. No stated cut-off is given here; in the data, active = GI50 up to about 1.1 µM and inactive = higher.

Tests used:
Experiment in all cases: NCI tumour cell line growth inhibition, 48 h
786-0 = system: 786-0
A498 = system: A498
A549 = system: A549
ACHN = system: ACHN
CAKI-1 = system: CAKI-1
CCRF-CEM = system: CCRF-CEM
COLO 205 = system: COLO 205
DU-145 = system: DU-145
EKVX = system: EKVX
HCT-116 = system: HCT-116
HCT-15 = system: HCT-15
HL-60 = system: HL-60
HOP-62 = system: HOP-62
HOP-92 = system: HOP-92
HT-29 = system: HT-29
Hs-578T = system: Hs-578T
IGROV-1 = system: IGROV-1
K562 = system: K562
KM12 = system: KM12
LOX IMVI = system: LOX IMVI
M14 = system: M14
MCF7 = system: MCF7
MDA-MB-231 = system: MDA-MB-231
MDA-MB-435 = system: MDA-MB-435
MDA-N = system: MDA-N
MOLT-4 = system: MOLT-4
Malme-3M = system: Malme-3M
NCI-H226 = system: NCI-H226
NCI-H23 = system: NCI-H23
NCI-H460 = system: NCI-H460
NCI-H522 = system: NCI-H522
NCI/ADR-RES = system: NCI/ADR-RES
OVCAR-3 = system: OVCAR-3
OVCAR-4 = system: OVCAR-4
OVCAR-5 = system: OVCAR-5
OVCAR-8 = system: OVCAR-8
PC-3 = system: PC-3
RPMI-8226 = system: RPMI-8226
RXF 393 = system: RXF 393
SF-268 = system: SF-268
SF-295 = system: SF-295
SF-539 = system: SF-539
SK-MEL-28 = system: SK-MEL-28
SK-MEL-2 = system: SK-MEL-2
SK-MEL-5 = system: SK-MEL-5
SK-OV-3 = system: SK-OV-3
SN12C = system: SN12C
SNB-19 = system: SNB-19
SNB-75 = system: SNB-75
SR = system: SR
SW-620 = system: SW-620
TK-10 = system: TK-10
U-251 = system: U-251
UACC-257 = system: UACC-257
UACC-62 = system: UACC-62
UO-31 = system: UO-31
HCC 2998 = system: HCC 2998
T47D = system: T47D

For CCOC(=O)C1(C(=O)OCC)C[C@@H](C)[C@@H](O)C1, which GI50 (786-0) is on record?
The GI50 was > 100 µM (inactive).

What about the GI50 (A498) of the same compound?
Its GI50 is > 100 µM (inactive).

And the GI50 (A549)?
The GI50 was > 100 µM (inactive).

And the GI50 (ACHN)?
The GI50 was > 100 µM (inactive).

What about the GI50 (CAKI-1) of the same compound?
The GI50 was > 100 µM (inactive).

And the GI50 (CCRF-CEM)?
The GI50 was > 100 µM (inactive).

What about the GI50 (COLO 205) of the same compound?
The GI50 was > 100 µM (inactive).

What about the GI50 (DU-145) of the same compound?
The GI50 was > 100 µM (inactive).

And the GI50 (EKVX)?
The GI50 was > 100 µM (inactive).

What about the GI50 (HCT-116) of the same compound?
The GI50 was > 100 µM (inactive).

What about the GI50 (HCT-15) of the same compound?
The GI50 was over 100 µM.

And the GI50 (HL-60)?
The GI50 was 89.9 µM (inactive).

What about the GI50 (HOP-62) of the same compound?
Its GI50 is > 100 µM (inactive).

And the GI50 (HOP-92)?
The GI50 was > 100 µM (inactive).

And the GI50 (HT-29)?
The GI50 was > 100 µM (inactive).

And the GI50 (Hs-578T)?
Its GI50 is > 100 µM (inactive).

And the GI50 (IGROV-1)?
Its GI50 is > 100 µM (inactive).

And the GI50 (K562)?
The GI50 was > 100 µM (inactive).

And the GI50 (KM12)?
The GI50 was > 100 µM (inactive).

And the GI50 (LOX IMVI)?
Its GI50 is > 100 µM (inactive).

What about the GI50 (M14) of the same compound?
The GI50 was > 100 µM (inactive).

What about the GI50 (MCF7) of the same compound?
Its GI50 is > 100 µM (inactive).

What about the GI50 (MDA-MB-231) of the same compound?
Its GI50 is > 100 µM (inactive).

And the GI50 (MDA-MB-435)?
Its GI50 is > 100 µM (inactive).

And the GI50 (MDA-N)?
Its GI50 is > 100 µM (inactive).

And the GI50 (MOLT-4)?
The GI50 was > 100 µM (inactive).

What about the GI50 (Malme-3M) of the same compound?
The GI50 was 72.1 µM (inactive).

And the GI50 (NCI-H226)?
The GI50 was > 100 µM (inactive).

And the GI50 (NCI-H23)?
The GI50 was > 100 µM (inactive).

What about the GI50 (NCI-H460) of the same compound?
Its GI50 is > 100 µM (inactive).

And the GI50 (NCI-H522)?
The GI50 was > 100 µM (inactive).

And the GI50 (NCI/ADR-RES)?
Its GI50 is > 100 µM (inactive).

What about the GI50 (OVCAR-3) of the same compound?
Its GI50 is > 100 µM (inactive).

What about the GI50 (OVCAR-4) of the same compound?
The GI50 was > 100 µM (inactive).

What about the GI50 (OVCAR-5) of the same compound?
Its GI50 is > 100 µM (inactive).

And the GI50 (OVCAR-8)?
The GI50 was > 100 µM (inactive).

What about the GI50 (PC-3) of the same compound?
The GI50 was > 100 µM (inactive).

And the GI50 (RPMI-8226)?
The GI50 was > 100 µM (inactive).

And the GI50 (RXF 393)?
The GI50 was > 100 µM (inactive).

What about the GI50 (SF-268) of the same compound?
The GI50 was > 100 µM (inactive).

What about the GI50 (SF-295) of the same compound?
The GI50 was > 100 µM (inactive).

What about the GI50 (SF-539) of the same compound?
The GI50 was > 100 µM (inactive).

What about the GI50 (SK-MEL-28) of the same compound?
The GI50 was > 100 µM (inactive).

And the GI50 (SK-MEL-2)?
The GI50 was > 100 µM (inactive).

And the GI50 (SK-MEL-5)?
The GI50 was > 100 µM (inactive).

What about the GI50 (SK-OV-3) of the same compound?
The GI50 was > 100 µM (inactive).

What about the GI50 (SN12C) of the same compound?
Its GI50 is > 100 µM (inactive).

What about the GI50 (SNB-19) of the same compound?
Its GI50 is > 100 µM (inactive).

And the GI50 (SNB-75)?
The GI50 was 75.7 µM (inactive).

What about the GI50 (SR) of the same compound?
Its GI50 is > 100 µM (inactive).

And the GI50 (SW-620)?
The GI50 was > 100 µM (inactive).

What about the GI50 (TK-10) of the same compound?
Its GI50 is > 100 µM (inactive).

And the GI50 (U-251)?
Its GI50 is > 100 µM (inactive).

What about the GI50 (UACC-257) of the same compound?
The GI50 was > 100 µM (inactive).

What about the GI50 (UACC-62) of the same compound?
The GI50 was > 100 µM (inactive).

And the GI50 (UO-31)?
Its GI50 is > 100 µM (inactive).

For NC(CCOCCP(=O)(O)CCOCCC(N)C(=O)O)C(=O)O (stereo unspecified), which GI50 (A549) is on record?
The GI50 was > 100 µM (inactive).

What about the GI50 (ACHN) of the same compound?
The GI50 was > 100 µM (inactive).

And the GI50 (CAKI-1)?
Its GI50 is > 100 µM (inactive).

And the GI50 (CCRF-CEM)?
The GI50 was > 100 µM (inactive).

And the GI50 (COLO 205)?
Its GI50 is > 100 µM (inactive).

What about the GI50 (DU-145) of the same compound?
The GI50 was > 100 µM (inactive).

What about the GI50 (EKVX) of the same compound?
Its GI50 is > 100 µM (inactive).

And the GI50 (HCC 2998)?
Its GI50 is > 100 µM (inactive).

And the GI50 (HCT-116)?
The GI50 was > 100 µM (inactive).

And the GI50 (HCT-15)?
The GI50 was over 100 µM.

What about the GI50 (HL-60) of the same compound?
Its GI50 is > 100 µM (inactive).

And the GI50 (HOP-92)?
The GI50 was > 100 µM (inactive).

What about the GI50 (HT-29) of the same compound?
Its GI50 is > 100 µM (inactive).

What about the GI50 (Hs-578T) of the same compound?
The GI50 was > 100 µM (inactive).

What about the GI50 (IGROV-1) of the same compound?
Its GI50 is > 100 µM (inactive).

And the GI50 (K562)?
Its GI50 is > 100 µM (inactive).

What about the GI50 (KM12) of the same compound?
Its GI50 is > 100 µM (inactive).

What about the GI50 (M14) of the same compound?
Its GI50 is > 100 µM (inactive).

And the GI50 (MCF7)?
The GI50 was > 100 µM (inactive).

And the GI50 (MDA-MB-231)?
Its GI50 is > 100 µM (inactive).

What about the GI50 (MDA-MB-435) of the same compound?
Its GI50 is > 100 µM (inactive).

What about the GI50 (MOLT-4) of the same compound?
The GI50 was > 100 µM (inactive).

And the GI50 (NCI-H23)?
The GI50 was > 100 µM (inactive).

What about the GI50 (NCI-H460) of the same compound?
Its GI50 is > 100 µM (inactive).

And the GI50 (NCI-H522)?
The GI50 was > 100 µM (inactive).

And the GI50 (NCI/ADR-RES)?
Its GI50 is > 100 µM (inactive).

And the GI50 (OVCAR-3)?
The GI50 was > 100 µM (inactive).

And the GI50 (OVCAR-4)?
The GI50 was > 100 µM (inactive).

What about the GI50 (OVCAR-5) of the same compound?
The GI50 was > 100 µM (inactive).

And the GI50 (OVCAR-8)?
The GI50 was > 100 µM (inactive).

And the GI50 (RPMI-8226)?
Its GI50 is > 100 µM (inactive).

And the GI50 (RXF 393)?
Its GI50 is > 100 µM (inactive).

And the GI50 (SF-268)?
Its GI50 is > 100 µM (inactive).

What about the GI50 (SF-295) of the same compound?
The GI50 was > 100 µM (inactive).

What about the GI50 (SF-539) of the same compound?
The GI50 was > 100 µM (inactive).

What about the GI50 (SK-MEL-28) of the same compound?
The GI50 was > 100 µM (inactive).

What about the GI50 (SK-MEL-2) of the same compound?
Its GI50 is > 100 µM (inactive).

And the GI50 (SK-MEL-5)?
The GI50 was > 100 µM (inactive).

What about the GI50 (SK-OV-3) of the same compound?
The GI50 was > 100 µM (inactive).

And the GI50 (SN12C)?
Its GI50 is > 100 µM (inactive).

And the GI50 (SNB-19)?
Its GI50 is > 100 µM (inactive).

And the GI50 (SNB-75)?
The GI50 was > 100 µM (inactive).

What about the GI50 (SR) of the same compound?
The GI50 was > 100 µM (inactive).

And the GI50 (SW-620)?
Its GI50 is > 100 µM (inactive).

And the GI50 (T47D)?
Its GI50 is > 100 µM (inactive).

What about the GI50 (TK-10) of the same compound?
The GI50 was > 100 µM (inactive).

What about the GI50 (U-251) of the same compound?
The GI50 was > 100 µM (inactive).

And the GI50 (UACC-257)?
Its GI50 is > 100 µM (inactive).

What about the GI50 (UACC-62) of the same compound?
The GI50 was > 100 µM (inactive).

And the GI50 (UO-31)?
Its GI50 is > 100 µM (inactive).
